# Results reported in EPA's ToxValDB 9.5.
# Key:
# Megascops sp. = conditions: oral
# Neovison sp. = conditions: repeat dose other; oral; Mink
# Rattus norvegicus = conditions: subchronic; duration: 90 days; oral; diet; M; Crl:CD(SD) BR; Body Weight Changes: Weight gain decrease + Absolute Organ Weight: Liver increase + Relative Organ Weight: Liver increase + Histopathology: …
# Monkey [1] = conditions: short-term; duration: 29 days; oral; capsule; M; Cynomolgus; blood: basophils + blood: eosinophils + blood: lymphocytes + blood: monocytes + blood: reticulocytes + blood: segmented neutrophils + blood…
# Labeo boga = conditions: whole body
# Oryctolagus sp. = conditions: acute, dermal; for LOAEL: duration: 1 days
# Monkey [2] = conditions: oral
# [3] = short-term, duration: 7 day, M, Medaka, liver IL-1Beta/Beta-actin mRNA ratio + liver IL-6/Beta-actin mRNA ratio
# [4] = short-term, duration: 21 day, M/F, mRNA expression levels of IgM in spleen + mRNA expression levels of IL-1 beta in spleen + mRNA expression levels of myd88 in spleen
# [5] = chronic, duration: 26 weeks, M, Cynomolgus, Body Weight: 12% decrease by week 10
# [6] = chronic, duration: 26 weeks, M, Cynomolgus, Endocrine: Significant decrease in serum TT4 (27-35%) and FT4 (30-38%)
smiles,measurement,setting,value
[F-].[Na+] [Sodium fluoride],LOAEL,Megascops sp.,32 mg/kg-day
same,NOAEL,Megascops sp.,7.8 mg/kg-day
same,LOAEL,Neovison sp.,52.8 mg/kg-day
same,NOAEL,Neovison sp.,31.4 mg/kg-day
O=C([O-])C(F)(F)C(F)(F)C(F)(F)C(F)(F)C(F)(F)C(F)(F)C(F)(F)F.[NH4+] [Ammonium perfluorooctanoate],NOAEL,Rattus norvegicus,0.096 mg/kg-day
same,NOEL,Monkey [1],20 mg/kg-day
same,LOEL,Labeo boga; [3],50 mg/L
same,NOEL,Labeo boga; [3],10 mg/L
same,LOEL,"Labeo boga; short-term, duration: 7 day, M, Medaka, liver TNF-alpha/Beta-actin mRNA ratio",10 mg/L
same,LOEL,"Labeo boga; short-term, duration: 15 day, M/F, Medaka, c-type lysozyme mRNA expression",1 mg/L
same,NOEL,"Labeo boga; short-term, duration: 15 day, M/F, Medaka, complement component C3-1 mRNA expression",1 mg/L
same,LOEL,"Labeo boga; short-term, duration: 21 day, M/F, Atlantic Salmon, cortisol",0.1 mg/L
same,LOEL,"Labeo boga; short-term, duration: 21 day, M/F, mRNA expression levels of IgD in spleen + mRNA expression levels of IgZ in spleen + mRNA expression levels of IL-21 in spleen + mRNA …",0.05 mg/L
same,LOEL,Labeo boga; [4],0.1 mg/L
same,NOEL,Labeo boga; [4],0.05 mg/L
same,LOEL,"Labeo boga; subchronic, duration: 48 day, M/F, Atlantic Salmon, cortisol",0.1 mg/L
same,NOEL,"Labeo boga; subchronic, duration: 48 day, M/F, Atlantic Salmon, fresh weight + length + thymus: thymus somatic index + thymus: thymus volume",0.1 mg/L
same,LOEL,"Labeo boga; subchronic, duration: 56 day, M/F, Atlantic Salmon, cortisol",0.1 mg/L
same,LOAEL,"Oryctolagus sp.; Albino, Ocular: Moderate eye irritation",100 mg
same,LOAEL,"Oryctolagus sp.; M, New Zealand, Death: 14-day LD50",4300 mg/kg-day
same,NOAEL,"Oryctolagus sp.; duration: 24 hours, Albino",500 mg
same,LOAEL,Monkey [2]; [5],20 mg/kg-day
same,NOAEL,Monkey [2]; [5],10 mg/kg-day
same,LOAEL,Monkey [2]; [6],10 mg/kg-day
same,NOAEL,Monkey [2]; [6],3 mg/kg-day
same,LOAEL,"Monkey [2]; chronic, duration: 26 weeks, M, Cynomolgus, Hepatic: 36% increase in absolute liver weight at ?3 mg/kg/day / increased serum triglyceride levels at 30/20 mg/kg/day",3 mg/kg-day
same,NOAEL,"Monkey [2]; chronic, duration: 26 weeks, M, Cynomolgus, Immunotoxicological: No histological alterations + Neurological: No histological alterations + Reproductive: No histological alterations",20 mg/kg-day
same,LOAEL,"Monkey [2]; short-term, duration: 2 weeks, M/F, Rhesus, Death: Unspecified number out of four died on week 2",100 mg/kg-day
same,NOAEL,"Monkey [2]; subchronic, duration: 30 days, M, Cynomolgus, Endocrine: No alterations in serum levels of thyroid hormones and TSH and histopathology of adrenals + Reproductive: No alterations in serum…",20 mg/kg-day
same,NOAEL,"Monkey [2]; subchronic, duration: 90 days, M/F, Rhesus",30 mg/kg-day
same,LOAEL,"Monkey [2]; subchronic, duration: 90 days, M/F, Rhesus, Body Weight: 33% body weight loss by week 6 + Death: One male and two females died during weeks 7-12",30 mg/kg-day
same,NOAEL,"Monkey [2]; subchronic, duration: 90 days, M/F, Rhesus, Body Weight: 33% body weight loss by week 6 + Gastrointestinal: Emesis + Immunotoxicological: Atrophy of lymphoid follicles in spleen and …",10 mg/kg-day
same,LOAEL,"Monkey [2]; subchronic, duration: 90 days, M/F, Rhesus, Gastrointestinal: Emesis + Immunotoxicological: Atrophy of lymphoid follicles in spleen and lymph nodes + Neurological: Hypoactivity and …",30 mg/kg-day
same,NOAEL,"Monkey [2]; subchronic, duration: 90 days, M/F, Rhesus, Reproductive: No histological alterations in testes or ovaries",100 mg/kg-day
